Results from patent publication US6905841B2, “Enzymatic substrates for detecting Pseudomonas aeruginas” (Biomerieux S.A., priority 1999, dated 2005).
Where two headings read alike, the source gives them in different places.

Columns and labels:
β-alanine aminopeptidase [1] = details: Citrobacter amalonaticus; 2 strains tested; read after 22 to 24 hours
β-alanine aminopeptidase [2] = details: Providencia stuartii; 1 strain tested; read after 22 to 24 hours
β-alanine aminopeptidase [3] = details: Salmonella arizonae; 1 strain tested; read after 22 to 24 hours
β-alanine aminopeptidase [4] = details: Serratia liquefaciens; 1 strain tested; read after 22 to 24 hours
β-alanine aminopeptidase [5] = details: Klebsiella oxytoca; 2 strains tested; read after 22 to 24 hours
β-alanine aminopeptidase [6] = details: Klebsiella pneumoniae; 3 strains tested; read after 22 to 24 hours
β-alanine aminopeptidase [7] = details: Burkholderia vesicularis; 1 strain tested; read after 22 to 24 hours
β-alanine aminopeptidase [8] = details: Myroïdes spp.; 1 strain tested; read after 22 to 24 hours
β-alanine aminopeptidase [9] = details: Shewanella algae; 1 strain tested; read after 22 to 24 hours
β-alanine aminopeptidase [10] = details: Streptococcus pyogenes; 2 strains tested; read after 22 to 24 hours
β-alanine aminopeptidase [11] = details: Enterococcus faecalis; 2 strains tested; read after 22 to 24 hours
β-alanine aminopeptidase [12] = details: Enterococcus faecium; 2 strains tested; read after 22 to 24 hours
β-alanine aminopeptidase [13] = assay: APIZYM-type test strips with β-alanyl-β-naphthylamide; type: cell-based; details: Edwarsiella tarda; 2 strains
β-alanine aminopeptidase [14] = assay: as above; type: cell-based; details: Salmonella paratyphi A; five strains
β-alanine aminopeptidase [15] = assay: as above; type: cell-based; details: Citrobacter freundii; five strains
β-alanine aminopeptidase [16] = assay: as above; type: cell-based; details: Klebsiella pneumoniae, spp. oxytoca; five strains
β-alanine aminopeptidase [17] = assay: as above; type: cell-based; details: Hafnia alvei; five strains
β-alanine aminopeptidase [18] = assay: as above; type: cell-based; details: Serratia marcescens; five strains
β-alanine aminopeptidase [19] = assay: as above; type: cell-based; details: Serratia odorifera; five strains
β-alanine aminopeptidase [20] = assay: as above; type: cell-based; details: Serratia fonticola; five strains
β-alanine aminopeptidase [21] = assay: as above; type: cell-based; details: Serratia plymuthica; five strains
β-alanine aminopeptidase [22] = assay: as above; type: cell-based; details: Proteus rettgeri; five strains
β-alanine aminopeptidase [23] = assay: as above; type: cell-based; details: Providencia stuartii; five strains
β-alanine aminopeptidase [24] = assay: as above; type: cell-based; details: Yersinia enterocolitica; five strains
β-alanine aminopeptidase [25] = assay: as above; type: cell-based; details: Pseudomonas putida; five strains
β-alanine aminopeptidase [26] = assay: as above; type: cell-based; details: Comamonas acidovorans; five strains
β-alanine aminopeptidase [27] = assay: as above; type: cell-based; details: Pseudomonas alcaligenes; five strains
β-alanine aminopeptidase [28] = assay: as above; type: cell-based; details: Stenotrophomonas maltophilia; five strains
β-alanine aminopeptidase [29] = assay: as above; type: cell-based; details: Brevundimonas diminuta; five strains
β-alanine aminopeptidase [30] = assay: as above; type: cell-based; details: Ralstonia picketti; five strains
β-alanine aminopeptidase [31] = assay: as above; type: cell-based; details: Alcaligenes faecalis/odorans; five strains
β-alanine aminopeptidase [32] = assay: as above; type: cell-based; details: Pasteurella gallinarum; 1 strain
β-alanine aminopeptidase [33] = assay: as above; type: cell-based; details: Actinobacillus ureae; 1 strain
β-alanine aminopeptidase [34] = assay: as above; type: cell-based; details: Pasteurella aerogenes; five strains
β-alanine aminopeptidase [35] = assay: as above; type: cell-based; details: proches de Pasteurella; 4 strains
β-alanine aminopeptidase [36] = assay: as above; type: cell-based; details: Moraxella bovis; 4 strains
β-alanine aminopeptidase [37] = assay: as above; type: cell-based; details: Moraxella osloensis; 18 strains
β-alanine aminopeptidase [38] = assay: as above; type: cell-based; details: Pseudomonas aeruginosa; five strains

NCCC(=O)c1c(N)cc(Cl)c(O)c1Cl
Number of negative results (β-alanine aminopeptidase [1]): 2
Number positive results (β-alanine aminopeptidase [1]): 0
Number of negative results (β-alanine aminopeptidase [2]): 1
Number positive results (β-alanine aminopeptidase [2]): 0
Number of negative results (β-alanine aminopeptidase [3]): 1
Number positive results (β-alanine aminopeptidase [3]): 0
Number of negative results (β-alanine aminopeptidase [4]): 0
Number positive results (β-alanine aminopeptidase [4]): 1
Number of negative results (β-alanine aminopeptidase [5]): 2
Number positive results (β-alanine aminopeptidase [5]): 0
Number of negative results (β-alanine aminopeptidase [6]): 3
Number positive results (β-alanine aminopeptidase [6]): 0
Number of negative results (β-alanine aminopeptidase [7]): 1
Number positive results (β-alanine aminopeptidase [7]): 0
Number of negative results (β-alanine aminopeptidase [8]): 1
Number positive results (β-alanine aminopeptidase [8]): 0
Number of negative results (β-alanine aminopeptidase [9]): 1
Number positive results (β-alanine aminopeptidase [9]): 0
Number of negative results (β-alanine aminopeptidase [10]): 2
Number positive results (β-alanine aminopeptidase [10]): 0
Number of negative results (β-alanine aminopeptidase [11]): 2
Number positive results (β-alanine aminopeptidase [11]): 0
Number of negative results (β-alanine aminopeptidase [12]): 2
Number positive results (β-alanine aminopeptidase [12]): 0

β-alanyl-β-naphthylamide
β-alanine aminopeptidase activity, result (β-alanine aminopeptidase [13]): negative
β-alanine aminopeptidase activity, result (β-alanine aminopeptidase [14]): negative
β-alanine aminopeptidase activity, result (β-alanine aminopeptidase [15]): negative
β-alanine aminopeptidase activity, result (β-alanine aminopeptidase [16]): negative
β-alanine aminopeptidase activity, result (β-alanine aminopeptidase [17]): negative
β-alanine aminopeptidase activity, result (β-alanine aminopeptidase [18]): negative
β-alanine aminopeptidase activity, result (β-alanine aminopeptidase [19]): negative
β-alanine aminopeptidase activity, result (β-alanine aminopeptidase [20]): negative
β-alanine aminopeptidase activity, result (β-alanine aminopeptidase [21]): negative
β-alanine aminopeptidase activity, result (β-alanine aminopeptidase [22]): negative
β-alanine aminopeptidase activity, result (β-alanine aminopeptidase [23]): negative
β-alanine aminopeptidase activity, result (β-alanine aminopeptidase [24]): negative
β-alanine aminopeptidase activity, result (β-alanine aminopeptidase [25]): negative
β-alanine aminopeptidase activity, result (β-alanine aminopeptidase [26]): negative
β-alanine aminopeptidase activity, result (β-alanine aminopeptidase [27]): negative
β-alanine aminopeptidase activity, result (β-alanine aminopeptidase [28]): negative
β-alanine aminopeptidase activity, result (β-alanine aminopeptidase [29]): negative
β-alanine aminopeptidase activity, result (β-alanine aminopeptidase [30]): negative
β-alanine aminopeptidase activity, result (β-alanine aminopeptidase [31]): negative
β-alanine aminopeptidase activity, result (β-alanine aminopeptidase [32]): negative
β-alanine aminopeptidase activity, result (β-alanine aminopeptidase [33]): negative
β-alanine aminopeptidase activity, result (β-alanine aminopeptidase [34]): negative
β-alanine aminopeptidase activity, result (β-alanine aminopeptidase [35]): negative
β-alanine aminopeptidase activity, result (β-alanine aminopeptidase [36]): negative
β-alanine aminopeptidase activity, result (β-alanine aminopeptidase [37]): negative
β-alanine aminopeptidase activity, result (β-alanine aminopeptidase [38]): positive
